“And” between values parts separate entries of the source, which are not always exact repeats. Identical values can stand only once. Like-named read-outs stand apart in the source and are kept apart here.
Tests used:
[1] = Determination of plasma concentration at steady state (Css, tot) in ob/ob mice; assay type: in vivo, mouse; details: continuous s.c. infusion, read-out: Css, tot (total plasma exposure at steady state)
Method: (§1) The animals are weighed at the start of the study and randomized based on body weight. Alzet osmotic minipumps (Model 2001D; infusion rate 8 μl/h) are used and loaded essentially as recommended by the Alzet technical information manual (Alza Scientific Products, 1997; Teeuwes and Yam, 1976). Continuous subcutaneous infusion with 24 hours duration is used. The minipumps are either filled with different concentrations of test compounds dissolved in vehicle or with only vehicle solution and maintained in vehicle pre-warmed to 37° C. (approx. 1 h). The minipumps are implanted subcutaneously in the neck/back region under short acting anesthesia (metofane/enflurane). This surgical procedure lasts approximately 5 min. It takes about 3 h to reach steady state delivery of the compound.
(§2) The weights of the food pellets are measured at 5 p.m. and at […]. for two days before (baseline) and one day after the implantation of the osmotic minipumps. The weighing is performed with a computer assisted Mettler Toledo PR 5002 balance. Occasional spillage is corrected for. At the end of the study the animals are killed by neck dislocation and trunk blood sampled for later analysis of plasma drug concentrations.
The plasma sample proteins are precipitated with methanol, centrifuged, and the supernatant is transferred to HPLC vials and injected into the liquid chromatography/mass spectrometric system. The mass spectrometer is set for electrospray positive ion mode and Multiple Reaction Monitoring.
A linear regression analysis of the standards forced through the origin is used to calculate the concentrations of the unknown samples.

ob/ob mice = assay: Effect of compounds on food intake in ob/ob mice (15 h food consumption, s.c. minipump infusion); assay type: in vivo, mouse; details: for Food intake, % of basal level, Mean: 15 h food consumption; for Inhibition (%) Based on basal (food intake): relative to vehicle
Method: Obese (ob/ob) mouse is selected as the primary animal model for screening as this mutant mouse consumes high amounts of food resulting in a high signal to noise ratio. To further substantiate and compare efficacy data, the effect of the compounds on food consumption is also studied in wild type (C57BL/6J) mice. The amount of food consumed during 15 hours of infusion of compounds is recorded.
Male mice (obese C57BL/6JBom-Lep^ob and lean wild-type C57B1/6JBom; Bomholtsgaard, Denmark) 8-9 weeks with an average body weight of 50 g (obese) and 25 g (lean) are used in all the studies. The animals are housed singly in cages at 23±1° C., 40-60 % humidity and have free access to water and standard laboratory chow. The 12/12-h light/dark cycle is set to lights off at 5 p.m. The animals are conditioned for at least one week before start of study.
The test compounds are dissolved in solvents suitable for each specific compound such as cyclodextrin, cyclodextrin/methane sulfonic acid, polyethylene glycol/methane sulfonic acid, or saline. Fresh solutions are made for each study. […] The purity of the test compounds is of analytical grade.
as §1, §2
Food consumption for 15 hours is measured for the three consecutive days and the percentage of basal level values is derived for each animal from the day before and after treatment. The values are expressed as mean±SD and mean±SEM from eight animals per dose group. Statistical evaluation is performed by Kruskal-Wallis one-way ANOVA using the per cent basal values. If statistical significance is reached at the level of p<0.05, Mann-Whitney U-test for statistical comparison between control and treatment groups is performed.

[2] = nominal 10 mg/kg/day s.c. infusion
[3] = mouse, plasma, subcutaneous, nominal 10 mg/kg/day
[4] = mouse, plasma, subcutaneous, nominal 30 mg/kg/day
[5] = mouse, plasma, subcutaneous, nominal 100 mg/kg/day
[6] = nominal 30 mg/kg/day s.c. infusion
[7] = nominal 100 mg/kg/day s.c. infusion

## Clc1cccc(N2CCNCC2)c1 [mCCP, m-chlorophenylpiperazine, reference compound]
[1]; nominal 10 mg/kg/day
  concentration at 24 h: 610 nM and 780 nM
ob/ob mice; [2]
  Food intake, % of basal level, Mean: 31.2 % of basal level and 39.4 % of basal level
  Inhibition (%) Based on basal (food intake): 52.5% and 39.6%

## Cc1c(S(=O)(=O)Nc2ccc3nccc(N4CCN(C)CC4)c3c2)sc2ccc(Cl)cc12 [EXAMPLE 1, 5-chloro-3-methyl-benzo[b]thiophene-2-sulphonic acid (4-[4-methylpiperazin-1-yl]quinolin-6-yl)amide]
[1]; [3]
  concentration at 24 h: 1000 nM
[1]; [4]
  concentration at 24 h: 1620 nM
[1]; [5]
  concentration at 24 h: 1810 nM
ob/ob mice; [2]
  Food intake, % of basal level, Mean: 62.5 % of basal level
  Inhibition (%) Based on basal (food intake): 4.9%
ob/ob mice; [6]
  Food intake, % of basal level, Mean: 49.3 % of basal level
  Inhibition (%) Based on basal (food intake): 25.0%
ob/ob mice; [7]
  Food intake, % of basal level, Mean: 49.9 % of basal level
  Inhibition (%) Based on basal (food intake): 24.1%
ob/ob mice; nominal 30 mg/kg/day s.c. infusion, listed as 5-Chloro-3-methyl-benzo[b]thiophene-2-sulfonic acid (4-[4-methylpiperazin-1-yl]q
  Inhibition (%) Based on basal (food intake): 25%
ob/ob mice; nominal 100 mg/kg/day s.c. infusion, listed as 5-Chloro-3-methyl-benzo[b]thiophene-2-sulfonic acid (4-[4-methylpiperazin-1-yl]q
  Inhibition (%) Based on basal (food intake): 24%

## CCCCc1ccc(S(=O)(=O)Nc2ccc3nccc(N4CCNCC4)c3c2)cc1 [EXAMPLE 2, 4-n-butyl-N-(4-piperazin-1-yl-quinolin-6-yl)benzenesulphonamide]
[1]; [3]
  concentration at 24 h: 370 nM
[1]; [4]
  concentration at 24 h: 940 nM
[1]; [5]
  concentration at 24 h: 1290 nM
ob/ob mice; [2]
  Food intake, % of basal level, Mean: 61.0 % of basal level
  Inhibition (%) Based on basal (food intake): 6.5%
ob/ob mice; [6]
  Food intake, % of basal level, Mean: 45.5 % of basal level
  Inhibition (%) Based on basal (food intake): 30.2%
ob/ob mice; [7]
  Food intake, % of basal level, Mean: 43.6 % of basal level
  Inhibition (%) Based on basal (food intake): 33.2%
ob/ob mice; nominal 30 mg/kg/day s.c. infusion, listed as 4-n-Butyl-N-(4-piperazin-1-yl-quinolin-6-yl)benzenesulfonamide
  Inhibition (%) Based on basal (food intake): 30%
ob/ob mice; nominal 100 mg/kg/day s.c. infusion, listed as 4-n-Butyl-N-(4-piperazin-1-yl-quinolin-6-yl)benzenesulfonamide
  Inhibition (%) Based on basal (food intake): 33%

Source: patent US20030166663A1, “Use” (priority 2001, published 2003)
